Assay results published in PubChem BioAssay AID256 (DTP/NCI, 2004).
“And” between values parts separate entries of the source, which are not always exact repeats. Equal entries are not always repeated. Inconclusive results and toxic doses are left out.

System: CD2F1 mice, L1210 leukemia ip, survival T/C
Test: NCI In Vivo Anticancer Drug Screen. Data for tumor model L1210 Leukemia (intraperitoneal) in CD2F1 (CDF1) mice
Conditions: higher = longer survival
Procedure, shortened: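 Compound-dosed mice with transplantable tumor versus matched vehicle controls; endpoint ratio T/C reported.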

[1] = endpoint: mean survival time, dose: 400.0 mg/kg/injection, schedule: Q04DX003 (ip), vehicle: saline with Tween-80
[2] = endpoint: mean survival time, dose: 100.0 mg/kg/injection, schedule: Q04DX003 (ip), vehicle: saline with Tween-80
[3] = endpoint: mean survival time, dose: 200.0 mg/kg/injection, schedule: Q04DX003 (ip), vehicle: saline with Tween-80
[4] = endpoint: mean survival time, dose: 50.0 mg/kg/injection, schedule: Q01DX009 (ip), vehicle: saline with Tween-80
[5] = endpoint: mean survival time, dose: 100.0 mg/kg/injection, schedule: Q01DX009 (ip), vehicle: saline with Tween-80
[6] = endpoint: mean survival time, dose: 200.0 mg/kg/injection, schedule: Q01DX009 (ip), vehicle: saline with Tween-80
[7] = endpoint: mean survival time, dose: 400.0 mg/kg/injection, schedule: Q01DX009 (ip), vehicle: saline with Tween-80
[8] = endpoint: mean survival time, dose: 25.0 mg/kg/injection, schedule: Q04DX003 (ip), vehicle: saline with Tween-80
[9] = endpoint: mean survival time, dose: 50.0 mg/kg/injection, schedule: Q04DX003 (ip), vehicle: saline with Tween-80

Cc1cc(O)c2c(c1)C(=O)C=CC2=O
T/C (endpoint: mean survival time, dose: 0.12 mg/kg/injection, schedule: Q01DX009 (ip), vehicle: other): 102 % of control
T/C (endpoint: mean survival time, dose: 0.25 mg/kg/injection, schedule: Q01DX009 (ip), vehicle: other): 108 % of control
T/C (endpoint: mean survival time, dose: 0.5 mg/kg/injection, schedule: Q01DX009 (ip), vehicle: other): 97 % of control
T/C (endpoint: mean survival time, dose: 1.0 mg/kg/injection, schedule: Q01DX009 (ip), vehicle: other): 93 % of control
T/C (endpoint: mean survival time, dose: 2.0 mg/kg/injection, schedule: Q01DX009 (ip), vehicle: other): 97 % of control

C[C@]1(O)CC[C@H]2[C@@H]3CCC4=CC(=O)CC[C@]4(C)[C@@]3(Cl)[C@@H](O)C[C@@]21C
T/C (endpoint: mean survival time, dose: 100.0 mg/kg/injection, schedule: Q04DX003 (ip), vehicle: saline sonified): 101 % of control
T/C (endpoint: mean survival time, dose: 176.0 mg/kg/injection, schedule: Q04DX003 (ip), vehicle: saline with Tween-80): 91 % of control
T/C (endpoint: mean survival time, dose: 200.0 mg/kg/injection, schedule: Q04DX003 (ip), vehicle: saline sonified): 107 % of control
T/C (endpoint: mean survival time, dose: 264.0 mg/kg/injection, schedule: Q04DX003 (ip), vehicle: saline with Tween-80): 96 % of control
T/C [1]: 94 % of control

O=c1[nH]cnc2c1nc(NCc1ccccc1)n2C1OC(CO)C(O)C1O (stereo not given)
T/C (endpoint: mean survival time, dose: 12.5 mg/kg/injection, schedule: Q01DX005 (ip), vehicle: distilled water + Tween-80): 98 % of control
T/C (endpoint: mean survival time, dose: 25.0 mg/kg/injection, schedule: Q01DX005 (ip), vehicle: distilled water + Tween-80): 96 % of control
T/C (endpoint: mean survival time, dose: 50.0 mg/kg/injection, schedule: Q01DX005 (ip), vehicle: distilled water + Tween-80): 96 % of control
T/C (endpoint: mean survival time, dose: 100.0 mg/kg/injection, schedule: Q01DX005 (ip), vehicle: distilled water + Tween-80): 101 % of control
T/C (endpoint: mean survival time, dose: 150.0 mg/kg/injection, schedule: Q01DX005 (ip), vehicle: distilled water + Tween-80): 98 % of control

CCOC(=O)C(C(C)=O)C(=O)/C=C/c1ccccc1 (stereo not given)
T/C [2]: 98 % of control
T/C [3]: 103 % of control
T/C [1]: 97 % of control

CC[C@@]1(OC(=O)CCC(=O)O)C(=O)OCc2c1cc1n(c2=O)Cc2cc3ccccc3nc2-1
T/C (endpoint: median survival time, dose: 5.86 mg/kg/injection, schedule: Q04DX002 (ip), vehicle: water): 118 % of control
T/C (endpoint: median survival time, dose: 8.79 mg/kg/injection, schedule: Q04HX004 (iv), vehicle: water): 154 % of control
T/C (endpoint: median survival time, dose: 11.73 mg/kg/injection, schedule: Q04DX002 (ip), vehicle: water): 120 % of control
T/C (endpoint: median survival time, dose: 17.59 mg/kg/injection, schedule: Q04HX004 (iv), vehicle: water): 167 % of control and 180 % of control
T/C (endpoint: median survival time, dose: 35.18 mg/kg/injection, schedule: Q04HX004 (iv), vehicle: water): 197 % of control and 228 % of control
T/C (endpoint: median survival time, dose: 46.9 mg/kg/injection, schedule: Q04DX002 (ip), vehicle: water): 192 % of control and 200 % of control
T/C (endpoint: median survival time, dose: 93.8 mg/kg/injection, schedule: Q04DX002 (ip), vehicle: water): 231 % of control

O=C(CNC(=O)Nc1cccc(C(F)(F)F)c1)N/N=C/c1cc(Br)ccc1O
T/C [4]: 96 % of control
T/C [5]: 88 % of control

Cc1cn(C2CC3O[P@](=S)(Nc4ccccc4)OCC3O2)c(=O)[nH]c1=O (stereo not given in full)
T/C (endpoint: median survival time, dose: 12.75 mg/kg/injection, schedule: Q01DX005 (ip), vehicle: saline with Tween-80): 100 % of control
T/C (endpoint: median survival time, dose: 25.5 mg/kg/injection, schedule: Q01DX005 (ip), vehicle: saline with Tween-80): 100 % of control
T/C (endpoint: median survival time, dose: 51.0 mg/kg/injection, schedule: Q01DX005 (ip), vehicle: saline with Tween-80): 100 % of control
T/C (endpoint: median survival time, dose: 102.0 mg/kg/injection, schedule: Q01DX005 (ip), vehicle: saline with Tween-80): 93 % of control

O=C1NC(=O)C2CC=CCC12 (stereo not given)
T/C [5]: 96 % of control
T/C [6]: 102 % of control
T/C [7]: 102 % of control

CC(C)COC(=O)CN(CC(=O)OCC(C)C)c1ccccc1
T/C [5]: 96 % of control
T/C [2]: 110 % of control
T/C [6]: 98 % of control
T/C [3]: 97 % of control
T/C [7]: 103 % of control
T/C [1]: 97 % of control

O=C(Nc1ccccc1)Oc1ccc(OCc2ccccc2)cc1
T/C (endpoint: mean survival time, dose: 12.5 mg/kg/injection, schedule: Q01DX009 (ip), vehicle: saline with Tween-80): 94 % of control
T/C (endpoint: mean survival time, dose: 25.0 mg/kg/injection, schedule: Q01DX009 (ip), vehicle: saline with Tween-80): 90 % of control
T/C [4]: 92 % of control

O=C(C1=CN(CCCO)CCC1)c1cc2ccccc2n1S(=O)(=O)c1ccccc1
T/C [2]: 104 % of control
T/C [3]: 90 % of control
T/C [1]: 97 % of control

CCCCCC(=O)N1CCOCC1
T/C [8]: 98 % of control
T/C [9]: 98 % of control
T/C [2]: 104 % of control and 112 % of control
T/C [3]: 102 % of control
T/C [1]: 100 % of control

c1ccc(OCCCNc2ccccn2)cc1
T/C [8]: 92 % of control
T/C [9]: 103 % of control
T/C [2]: 92 % of control and 97 % of control

Cc1c([N+](=O)[O-])cc2c(c1[N+](=O)[O-])C(C)(C)CC2(C)C
T/C [5]: 100 % of control
T/C [2]: 96 % of control
T/C [6]: 98 % of control
T/C [3]: 105 % of control
T/C [7]: 96 % of control
T/C [1]: 94 % of control

NNC(=O)CCCCCCCCCCCCCO
T/C (endpoint: mean survival time, dose: 50.0 mg/kg/injection, schedule: Q01DX001 (ip), vehicle: saline with Tween-80): 98 % of control
T/C (endpoint: mean survival time, dose: 100.0 mg/kg/injection, schedule: Q01DX001 (ip), vehicle: saline with Tween-80): 101 % of control
T/C (endpoint: mean survival time, dose: 200.0 mg/kg/injection, schedule: Q01DX001 (ip), vehicle: saline with Tween-80): 101 % of control

C=CC(C)(C)n1cc(C2=C(O)C(=O)C(c3cn(C(C)(C)C=C)c4ccccc34)=C(O)C2=O)c2ccccc21
T/C (endpoint: mean survival time, dose: 2.5 mg/kg/injection, schedule: Q01DX009 (ip), vehicle: Klucel (hydroxypropylcellulose) (HPC)): 97 % of control
T/C (endpoint: mean survival time, dose: 2.5 mg/kg/injection, schedule: Q01DX009 (ip), vehicle: carboxymethylcellulose (CMC)): 100 % of control
T/C (endpoint: mean survival time, dose: 5.0 mg/kg/injection, schedule: Q01DX009 (ip), vehicle: Klucel (hydroxypropylcellulose) (HPC)): 93 % of control
T/C (endpoint: mean survival time, dose: 5.0 mg/kg/injection, schedule: Q01DX009 (ip), vehicle: carboxymethylcellulose (CMC)): 100 % of control
T/C (endpoint: mean survival time, dose: 9.0 mg/kg/injection, schedule: Q01DX009 (ip), vehicle: carboxymethylcellulose (CMC)): 96 % of control
T/C (endpoint: mean survival time, dose: 10.0 mg/kg/injection, schedule: Q01DX009 (ip), vehicle: Klucel (hydroxypropylcellulose) (HPC)): 91 % of control
T/C (endpoint: mean survival time, dose: 10.0 mg/kg/injection, schedule: Q01DX009 (ip), vehicle: carboxymethylcellulose (CMC)): 98 % of control
T/C (endpoint: mean survival time, dose: 18.0 mg/kg/injection, schedule: Q01DX009 (ip), vehicle: carboxymethylcellulose (CMC)): 98 % of control
T/C (endpoint: mean survival time, dose: 20.0 mg/kg/injection, schedule: Q01DX009 (ip), vehicle: Klucel (hydroxypropylcellulose) (HPC)): 93 % of control
T/C (endpoint: mean survival time, dose: 20.0 mg/kg/injection, schedule: Q01DX009 (ip), vehicle: carboxymethylcellulose (CMC)): 98 % of control
T/C (endpoint: mean survival time, dose: 26.0 mg/kg/injection, schedule: Q01DX009 (ip), vehicle: carboxymethylcellulose (CMC)): 94 % of control
T/C (endpoint: mean survival time, dose: 40.0 mg/kg/injection, schedule: Q01DX009 (ip), vehicle: Klucel (hydroxypropylcellulose) (HPC)): 93 % of control
T/C (endpoint: mean survival time, dose: 40.0 mg/kg/injection, schedule: Q01DX009 (ip), vehicle: carboxymethylcellulose (CMC)): 93 % of control
T/C (endpoint: mean survival time, dose: 60.0 mg/kg/injection, schedule: Q01DX009 (ip), vehicle: carboxymethylcellulose (CMC)): 100 % of control
T/C (endpoint: median survival time, dose: 5.0 mg/kg/injection, schedule: Q01DX009 (ip), vehicle: Klucel (hydroxypropylcellulose) (HPC)): 101 % of control
T/C (endpoint: median survival time, dose: 10.0 mg/kg/injection, schedule: Q01DX009 (ip), vehicle: Klucel (hydroxypropylcellulose) (HPC)): 100 % of control and 102 % of control
T/C (endpoint: median survival time, dose: 20.0 mg/kg/injection, schedule: Q01DX009 (ip), vehicle: Klucel (hydroxypropylcellulose) (HPC)): 97 % of control and 100 % of control
T/C (endpoint: median survival time, dose: 40.0 mg/kg/injection, schedule: Q01DX009 (ip), vehicle: Klucel (hydroxypropylcellulose) (HPC)): 115 % of control and 109 % of control

CCC(=O)c1cc(OC)cc(OC)c1
T/C (endpoint: mean survival time, dose: 100.0 mg/kg/injection, schedule: Q04DX003 (ip), vehicle: saline): 100 % of control
T/C (endpoint: mean survival time, dose: 200.0 mg/kg/injection, schedule: Q04DX003 (ip), vehicle: saline): 101 % of control
T/C (endpoint: mean survival time, dose: 400.0 mg/kg/injection, schedule: Q04DX003 (ip), vehicle: saline): 103 % of control

Cc1c(NCO)c(=O)n(-c2ccccc2)n1C
T/C (endpoint: mean survival time, dose: 100.0 mg/kg/injection, schedule: Q01DX009 (ip), vehicle: saline): 94 % of control
T/C (endpoint: mean survival time, dose: 200.0 mg/kg/injection, schedule: Q01DX009 (ip), vehicle: saline): 89 % of control
T/C (endpoint: mean survival time, dose: 400.0 mg/kg/injection, schedule: Q01DX009 (ip), vehicle: saline): 105 % of control

Cc1cc(=O)[nH][nH]c1=O
T/C [5]: 104 % of control
T/C [6]: 97 % of control
T/C [7]: 101 % of control

O=S(=O)(O)c1ccc2c(N=Nc3ccccc3[As](=O)(O)O)c(O)c(S(=O)(=O)O)cc2c1
T/C [5]: 96 % of control
T/C [2]: 104 % of control
T/C [6]: 100 % of control
T/C [3]: 94 % of control
T/C [1]: 98 % of control
